{
  "source": "paper PMC7725785",
  "about": "“TRIB3 promotes MYC-associated lymphoma development through suppression of UBE3B-mediated MYC degradation” (Nature Communications, 2020)",
  "key": {"TRIB3-MYC interaction": {"test_system": "TRIB3-MYC interaction", "assay": "SIM imaging and Co-IP of the TRIB3-MYC interaction in Raji cells", "type": "cell-based, human", "details": "SIM (30 min) and Co-IP (4 μM, six hours), versus PCON, result in words", "description": "Co-IP experiments were performed as described previously. Briefly, cells were collected and lysed for 30 min on ice. Soluble lysates were incubated with the indicated antibodies at 4 °C overnight, followed by incubation with Protein A/G Plus-Agarose (Santa Cruz Biotechnology, TX, USA) at 4 °C for 2 h. Soluble lysates were incubated with the indicated Anti-Myc magnetic beads (Bimake.com, B26302), Anti-Flag Affinity Gel (Bimake.com, B23102) or Anti-HA Affinity Gel (Bimake.com, B23302) at 4 °C overnight. Immunocomplexes were separated from the beads and then boiled for 10 min. The precipitated proteins were subjected to SDS-PAGE and blotted with specific antibodies. For immunoblotting assays, proteins were extracted from cells, spleens, or lymphoma tissues using RIPA buffer (Cell Signaling Technology, MA, USA). A BCA Protein Assay Kit was used to determine protein concentrations. Protein extracts were separated by SDS-PAGE, transferred onto PVDF membranes, and subjected to immunoblot analysis. Western blot images were captured by a Tanon 5200 chemiluminescent imaging system (Tanon, Shanghai, […]). Human lymphoma and benign LN paraffin tissue microarrays were purchased from US Biomax (LM482a).\nCells (~20,000) were grown on coverslips and fixed with formalin after the indicated treatment. […]"}, "primary mouse BCL cells": {"test_system": "primary mouse BCL cells", "assay": "Serial colony formation of primary mouse BCL cells from Myc^Eμ mice", "type": "cell-based", "details": "result in words", "excerpt": "(§1) Mouse and human lymphoma cells formed colonies upon serum culture (P1). Single colonies of lymphoma cells were dispersed in methylcellulose-based medium MethoCul^TM M3630 (StemCell, 03630) or MethoCult™SF H4536 (StemCell, 04536). A representative plate was then washed and cells were resuspended and replated. After an additional 14 days, colonies were counted (P2)."}, "[1]": {"test_system": "primary human DLBCL cells (T69)", "assay": "Serial colony formation (P1, P2) in methylcellulose, primary human DLBCL cells (T69)", "type": "cell-based", "details": "also Raji and Jurkat (Fig. 6o, Supplementary Fig. 7r, s), result in words", "excerpt": "as §1"}, "[2]": {"test_system": "lymphoma and leukemia cells", "assay": "Cell viability (CCK-8) of lymphoma and leukemia cells with PCM4", "type": "cell-based, human", "details": "result in words"}, "DLBCL^T169 PDX": {"test_system": "DLBCL^T169 PDX", "assay": "PDX model tumor growth and weight, DLBCL T169", "type": "in vivo, human", "details": "result in words", "description": "(§2) Four 5-week-old male NSG mice were implanted subcutaneously with 200 μl of a 1:1 mixture of Matrigel® Basement Membrane Matrix High Concentration (Corning, 354230) and minced fresh tumor fragments resected from lymphoma patients. Approximately 3–4 weeks following implantation, the first-generation mice (G1) were killed, and tumor masses were isolated. The tumor cells were tested for human CD19 (BCL) or CD3 expression (T cell lymphoma), and the remaining tumor mass was cut into 3-mm^3 sections and passaged into 4–5 NSG mice as the second generation (G2). After stable passage of the third generation (G3), the tumor mass of the fourth generation (G4) was equally cut into 3-mm^3 pieces and then passaged subcutaneously into 30–50 NSG mice (100 μl of a 1:2 mixture of Matrigel and tumor tissue) for in vivo treatment (6–8 mice per group, dependent on the experimental drug treatment). During and after treatment with the vehicle control or the indicated agent, tumor burden was evaluated by measuring the tumor volume to determine the therapeutic efficacy in the PDX models. […]\n(§3) To evaluate the survival rate, these mice were monitored for 8 months (Myc^Eμ mice). […] During the indicated treatments, tumor burden was evaluated by measuring the tumor volume to determine the therapeutic efficacy in the PDX models."}, "[3]": {"test_system": "MYC transcriptional activity", "assay": "E-box luciferase reporter assay of MYC transcriptional activity in Raji cells", "type": "cell-based, human", "details": "24 h after transfection, versus PCON, result in words", "description": "Cells were seeded in 12-well plates and transfected with E-box-dependent luciferase reporters (Yeasen Inc.) using VigoFect (Vigorous Biotechnology Beijing, China). pTK-Renilla was used as an internal control. Luciferase activity was measured 20–24 h after transfection using the Dual-luciferase Reporter Assay System (Promega, USA)."}, "PTCL^T144 PDX": {"test_system": "PTCL^T144 PDX", "assay": "PDX model tumor growth and weight, PTCL T144", "type": "in vivo, human", "details": "result in words", "description": "as §2, §3"}, "Raji cells": {"test_system": "Raji cells", "assay": "Cell viability (CCK-8) of Raji cells with PCM4 and DOX", "type": "cell-based, human", "details": "result in words"}, "TLBL^T123 PDX": {"test_system": "TLBL^T123 PDX", "assay": "PDX model tumor growth and weight, T-LBL T123", "type": "in vivo, human", "details": "result in words", "description": "as §2, §3"}},
  "data": [
    {"sequence": "HLYVSPWGGKRREQLKHKLEQLR [PCM4, fused peptide generated by linking CM4 to a cell-penetrating peptide]", "values": [
      {"measurement": "colocalization and interaction of TRIB3 with MYC in lymphoma cells", "setting": "TRIB3-MYC interaction", "result": "inhibited the colocalization and interaction of TRIB3 with MYC"},
      {"measurement": "intrinsic clonogenicity of primary mouse BCL cells", "setting": "primary mouse BCL cells", "result": "reduced the intrinsic clonogenicity"},
      {"measurement": "intrinsic clonogenicity of human lymphoma cells", "setting": "[1]", "result": "reduced the intrinsic clonogenicity"},
      {"measurement": "proliferation of lymphoma and leukemia cells", "setting": "[2]", "result": "inhibited the proliferation of most lymphoma and leukemia cells in a time-dependent manner"},
      {"measurement": "growth and weights of tumors, combination of PCM4 and DOX", "setting": "DLBCL^T169 PDX; PDX T169 (high TRIB3 and MYC expression), PCM4 5 mg/kg and DOX 2 mg/kg", "result": "further decreased the growth and weights of tumors"},
      {"measurement": "tumor growth of PDX", "setting": "DLBCL^T169 PDX; PDX T169, NSG mice, PCM4 5 mg/kg i.v. three times a week", "result": "inhibited the tumor growth"},
      {"measurement": "MYC transcriptional activity", "setting": "[3]", "result": "reduced MYC transcriptional activity"},
      {"measurement": "growth and weights of tumors, combination of PCM4 and DOX", "setting": "PTCL^T144 PDX; PDX T144 (high TRIB3 and MYC expression), PCM4 5 mg/kg and DOX 2 mg/kg", "result": "further decreased the growth and weights of tumors"},
      {"measurement": "tumor growth of PDX", "setting": "PTCL^T144 PDX; PDX T144, NSG mice, PCM4 5 mg/kg i.v. three times a week", "result": "inhibited the tumor growth"},
      {"measurement": "effect on Raji cell proliferation in combination with doxorubicin (DOX)", "setting": "Raji cells", "result": "synergistically inhibited Raji cell proliferation"},
      {"measurement": "growth and weights of tumors, combination of PCM4 and DOX", "setting": "TLBL^T123 PDX; PDX T123 (high TRIB3 and MYC expression), PCM4 5 mg/kg and DOX 2 mg/kg", "result": "further decreased the growth and weights of tumors"},
      {"measurement": "tumor growth of PDX", "setting": "TLBL^T123 PDX; PDX T123, NSG mice, PCM4 5 mg/kg i.v. three times a week", "result": "inhibited the tumor growth"}
    ]}
  ]
}
